Results on four compounds are retold here after patent US10662169B2, “Catechol derivative and pharmaceutical composition comprising the same” (AUTOPHAGYSCIENCES INC., priority 2015, dated 2020).

For assay [1], the system named is LC3-II in primary hepatocytes. As to the kind of experiment: Autophagy activation: LC3-II Western immunoblotting in primary hepatocytes, ischemia-reperfusion model. Particulars: FIG. 1, FIG. 2. The class given is cell-based, C57BL/6 mice. The procedure: Primary hepatocyte was isolated from male C57BL/6 mice by a collagenase perfusion method which is a known method (Gastroenterology 2011, 141, 2188). Survival rate of the isolated cells was measured by trypan blue exclusion method. Autophagy was induced by ischemia-reperfusion method (Gastroenterology 2011, 141, 2188).
Specifically, in order to induce ischemia, hepatocytes were incubated at 37° C. in Krebs-Ringer-HEPES (KRH0) buffer (pH 6.2) in an anaerobic chamber for 2 hours. The respective hepatocytes were treated with DMSO, the compound prepared in Examples described above, or Rapamycin as a control substance, and then KRH buffer solution at pH 7.4 was treated under aerobic conditions for 1 hour to induce reperfusion. […] The amount of protein was measured with bovine serum albumin as a protein standard using Bio-Rad Protein Assay Kit (Cat No. 500-0002). […] Then, bands were measured using ECL (Enhanced Chemiluminescence, Thermo Scientific, Cat No. 34080). […]
The amount of LC3-II increased by the compound treatment was quantified by measuring the band density, and then compared with the amount of LC3-II increased by the treatment of Rapamycin used as a control substance, and the comparison values are shown in Table 1.

The subject of another assay is mTOR. As to the kind of experiment: mTOR enzyme activity: p-mTOR (Ser 2448) Western immunoblotting in hepatocyte ischemia-reperfusion model. The class given is cell-based, C57BL/6 mice. Particulars: hepatocytes, FIG. 3. The procedure: Western immunoblotting was performed using the cell-disrupted liquid obtained in Experimental Example 1. The PVDF membrane obtained from electrophoresis and electroblotting was placed in a TBS-tween solution containing an antibody against mTOR or p-mTOR (Ser 2448) proteins (Cell Signaling), allowed to stand at 4° C. for 12 hours, and then labeled with a secondary antibody labeled with HRP (Horseradish Peroxidase, Sigma Co., Cat No. P0889). Then, bands were measured using ECL (Enhanced Chemiluminescence, Thermo Scientific, Cat No. 34080).
The measurement results are shown in FIG. 3. mTOR is known to be one of the major proteins regulating autophagy. mTOR serves to inhibit autophagy at a quiescent state, whereas phosphorylation at serine 2448-position inhibits the function of mTOR, resulting in activation of autophagy.

In assay [2] the test system is acute liver injury induced by carbon tetrachloride. The assay can be described thus: Model of acute liver injury induced by carbon tetrachloride. The class given is in vivo, C57BL/6 mice. Particulars: 50 mg/kg orally three times every 12 hours, then CCl4 5 mL/kg i.p.; autopsy 24 hours later; FIG. 4. Here is the method:
Attempts were made to confirm the inhibitory effect of autophagy activator on liver injury in an animal model of induced liver fibrosis due to acute liver injury. In order to confirm the effect of inhibiting acute liver injury, carbon tetrachloride (CCl4) was administered to C57BL/6 mice to induce acute liver injury, and then the compound according to the present invention was administered. It was then confirmed whether liver injuries were inhibited. Five-week-old female C57BL/6 mice were introduced and acclimated for one week, and then divided into six groups respectively; a normal control group, a group to which carbon tetrachloride was administered, and groups to which the compounds according to the present invention (Examples 1, 2, 5, and 7) were administered. Each of the compounds according to the present invention was dissolved in corn oil and administered orally three times at a dose of 50 mg/kg (body weight) every 12 hours. 30 Minutes after final oral administration, carbon tetrachloride was intraperitoneally administered at a dose of 5 mL/kg (body weight) and then autopsied 24 hours later top remove a sample of liver tissue under autopsy and fix it, thereby preparing a tissue specimen. After preparation of tissue specimen slides, H & E staining was performed and liver injuries were confirmed with a microscope.

The test system of assay [3] is liver fibrosis induced by carbon tetrachloride. As to the kind of experiment: Model of liver fibrosis induced by carbon tetrachloride (chronic). The class given is in vivo, C57BL/6 mice. Particulars: for liver fibrosis, Masson's Trichrome staining: CCl4 0.8 ml/kg i.p., FIG. 10. Here is the method:
In order to confirm the effect of inhibiting liver fibrosis caused by chronic liver injury, carbon tetrachloride was administered to C57BL/6 mice to induce chronic liver injury, thereby inducing liver fibrosis, and then the compounds according to the present invention were administered. It was then confirmed whether chronic liver injuries were inhibited. Five-week-old female C57BL/6 mice were introduced and acclimated for one week, and then divided into six groups respectively; a normal control group, a group to which carbon tetrachloride was administered, and groups to which the compounds according to the present invention (Examples 1 and 5) were administered. Carbon tetrachloride was dissolved in corn oil and administered intraperitoneally at a dose of 0.8 ml/kg (body weight) twice a day, for a total of 8 days. Twenty-four hours after the final oral administration, an autopsy was performed to remove a sample of liver tissue and fix it, thus preparing a tissue specimen. After preparation of tissue specimen slides, H & E staining was performed, and liver tissue injury as well as inflammatory cell infiltration in liver tissue were confirmed by microscopy. In addition, Masson's Trichrome staining was performed, and collagen deposition in the liver tissue was confirmed by microscope.

For assay [4], the system named is liver fibrosis induced by bile duct ligation. The assay can be described thus: Model of liver fibrosis induced by bile duct ligation (BDL). Format: in vivo, Sprague Dawley (SD) rats. Particulars: BDL rats; 12.5, 25 and 50 mg/kg orally once a day for 14 days; FIG. 13. Here is the method: In order to confirm the effect of inhibiting liver fibrosis caused by chronic liver injury, bile duct ligation (BDL) was performed in Sprague Dawley (SD) rats to induce chronic liver injury, thereby inducing liver fibrosis, and then the compounds according to the present invention were administered. It was then confirmed whether chronic liver injuries were inhibited.
Seven-week-old female SD rats were introduced and acclimated for one week, and then divided into five groups respectively; a control group, a bile duct ligation surgery group, and groups to which the compound according to the present invention (Example 15) was administered at three doses (12.5, 25 and 50 mg/kg body weight). In the control group, the bile duct was not exposed or ligated after laparotomy, and the other groups performed bile duct ligation surgery. One week after bile duct ligation, the compound according to the present invention (Example 1) was dissolved in corn oil and administered orally for each dose once a day for a total of 14 days. […] In addition, a part of the removed liver (10 mg) was decomposed to perform a quantitative experiment of hydroxyproline which is a major component of collagen, and the amount of collagen deposited was quantified, thereby confirming the effects of the compound according to the present invention.

The test system of assay [5] is liver fibrosis induced by thioacetamide. As to the kind of experiment: Model of liver fibrosis induced by thioacetamide (TAA). Particulars: TAA 200 mg/kg i.p. three times a week for 6 weeks; compound 50 mg/kg orally once a day for 8 days; FIG. 7. The class given is in vivo, C57BL/6 mice. Here is the method:
In order to confirm the effect of inhibiting liver fibrosis caused by chronic liver injury, thioacetamide (TAA) was administered to C57BL/6 mice to induce chronic liver injury, thereby inducing liver fibrosis, and then the compounds according to the present invention were administered. It was then confirmed whether chronic liver injuries were inhibited. Five-week-old female C57BL/6 mice were introduced and acclimated for one week, and then divided into six groups respectively; a normal control group, a group to which thioacetamide was administered, and groups to which the compounds according to the present invention (Examples 2, 5 and 7) were administered. Thioacetamide was dissolved in phosphate-buffered physiological saline and administered intraperitoneally at a dose of 200 mg/kg (body weight) three times a week, for a total of 6 weeks. Three compounds according to the present invention was dissolved in corn oil […] and administered orally at a dose of 50 mg/kg (body weight) once a day for a total of 8 days. Twenty-four hours after the final oral administration, an autopsy was performed to remove a sample of liver tissue and fix it, thus preparing a tissue specimen. After preparation of tissue specimen slides. H & E staining was performed, and liver tissue injury as well as inflammatory cell infiltration in liver tissue were confirmed by microscopy. […]

Structures are written as SMILES.

For the compound `COc1ccc(-c2ccc(C(=O)NC(C)C)s2)cc1OC` [Example 1, 5-(3,4-dimethoxyphenyl)-N-isopropylthiophene-2-carboxamide], the “increase in LC3-II (autophagy induction), Western immunoblotting” value in assay [1] is “significant increase in autophagy induction”. In the assay with mTOR, the “phosphorylation of mTOR at serine 2448 position” value is listed as “significantly inhibited”. Moreover, the “liver injury, H & E staining” value in assay [2] is “liver injury was clearly recovered”. For the same compound, in assay [3], the “liver fibrosis, Masson's Trichrome staining” value is listed as “fibrosis was alleviated”. Further, the “collagen deposition, Example 1 compared with Example 5” value in assay [3] (CCl4 fibrosis model, Masson's Trichrome staining) is reported as “collagen deposition was less”. The “collagen deposition, quantitative experiment of hydroxyproline in liver tissue” value in assay [4] is given as “the smaller the collagen deposition”.
As for `CC(C)NC(=O)c1ccc(-c2ccc3c(c2)OCO3)s1` [Example 2, 5-(benzo[d][1,3]dioxol-5-yl)-N-isopropylthiophene-2-carboxamide], in assay [2], the “liver injury, H & E staining” value was “recovery effect of liver injury was relatively small”. Further, the “liver fibrosis (collagen deposition), Masson's Trichrome staining” value in assay [5] was “fibrosis was clearly alleviated”.
`CC(C)CNC(=O)c1ccc(-c2ccc3c(c2)OCO3)s1` [Example 5, 5-(benzo[d][1,3]dioxol-5-yl)-N-isobutylthiophene-2-carboxamide]: the “increase in LC3-II (autophagy induction), Western immunoblotting” value in assay [1] was “significant increase in autophagy induction”. Also, in assay [2], the “liver injury, H & E staining” value is given as “liver injury was clearly recovered”. Further, the “liver fibrosis (collagen deposition), Masson's Trichrome staining” value in assay [5] is “fibrosis was clearly alleviated”. In addition, in assay [3], the “liver fibrosis, Masson's Trichrome staining” value is “fibrosis was alleviated”.
On to `COc1ccc(-c2ccc(C(=O)Nc3ccccc3)s2)cc1OC` [Example 7, 5-(3,4-dimethoxyphenyl)-N-phenylthiophene-2-carboxamide], for which the “liver injury, H & E staining” value in assay [2] is given as “recovery effect of liver injury was relatively small”.
